Results published in US20250375457A1, “TOPICAL PHARMACEUTICAL COMPOSITIONS AND USES THEREOF” (Shenzhen Pharmacin Co., Ltd., priority 2022, published 2025).
Read-outs that look alike come from different tables or passages of the source.

Key:
[1] = cited from earlier work
British guinea pigs = type: in vivo; conditions: single skin application 0.2 mL/site, irradiation 10±1 J/cm^2, observed to 72 hours
Procedure: Phototoxicity of midostaurin cream was tested using British guinea pigs as a model. Male guinea pigs were randomly divided into groups and given a single skin application of physiological saline (negative control), 8-MOP (positive control), 1.0% midostaurin cream, and midostaurin cream blank matrix. The dose given is 0.2 mL/site and the administration site was fixed after the treatment was applied. After 0.5 hours, the administration site was irradiated by the sunlight simulator of Dr. Hönle AG (SOL500) to reach the specified irradiation amount of 10±1 J/cm^2. The irradiance was measured with a UV radiometer equipped with type UVA FO from Dr. Hönle AG. The first day of dosing is designated as day 1 of the trial (Day 1). After the irradiation, the skin irritation of the administration site was observed and scored at 1+0.5 hours, 24 hours, 48 hours and 72 hours, respectively.

[2] = Equilibrium solubility of midostaurin in different solvents (HPLC); type: physicochemical; conditions: thermodynamic from solid, 25° C., 24-72 hours
Procedure: Many different solvents were evaluated for their compatibility with midostaurin. […] Solubility was measured by HPLC.

[3] = Solubility of midostaurin in solubilizer-water mixture systems; type: physicochemical; conditions: solubilizer-water mixtures, aqueous with cosolvent or surfactant or cyclodextrin, thermodynamic from solid, Transcutol, Labrasol, Tween 80, Cremphor EL, Kolliphor HS15 at 10%, 20%, 30% v/v in water, 25° C.
Procedure: The solubility of midostaurin in a system with water and a solubilizer combined at a certain ratio was also evaluated. The method involves adding excess amorphous midostaurin powders into various concentrations of solubilizer and water systems and mixed for 24 hours at 25° C. with 600 rpm to ensure equilibrium was achieved. Solubilizers selected for this study include Transcutol, Labrasol, Tween 80, Cremphor EL, and Kolliphor HS15. Each solubilizer is mixed with water at 10%, 20%, and 30% v/v, respectively, to form a system where amorphous midostaurin power was dissolved.

[4] = Excipient compatibility study (impurities by HPLC); type: physicochemical; conditions: 1:200 (w/w), 60° C. for 10 days
Procedure: Midostaurin was mixed with many excipients used in topical formulations at 1:200 (w/w) and was placed at 60° C. for 10 days before testing.

SMILES | log P [1] | phototoxicity (edema and erythema at administration site after UV irradiation) (British guinea pigs) | solubility ([2]; oil or lipid, corn oil, read-out: solubility in corn oil) [µg/mL] | solubility ([2]; oil or lipid, soybean oil, read-out: solubility in soybean oil) [µg/mL] | solubility ([2]; organic solvent or mixture, Labrasol, read-out: solubility in Labrasol) [µg/mL] | solubility ([2]; organic solvent or mixture, Tween 80, read-out: solubility in Tween 80) [µg/mL] | solubility ([2]; organic solvent or mixture, ethanol, read-out: solubility in ethanol) [µg/mL] | solubility ([2]; organic solvent or mixture, glycerol, read-out: solubility in glycerol) [µg/mL] | solubility at 24 h [3] [µg/mL] | Impurity results (%) RRT 0.91 [4] [%] | Impurity results (%) RRT 0.93 [4] [%] | Impurity results (%) RRT 0.97 [4] [%] | Impurity results (%) RRT 1.00 (midostaurin assay content) [4] [%] | Impurity results (%) RRT 1.10 [4] [%]
Oc1ccc(O)cc1 [Hydroquinone, hydroquinone] | 1.09 | – | – | – | – | – | – | – | – | – | – | – | – | –
COc1c2occc2cc2ccc(=O)oc12 [Lot 8-MOP] | – | Edema and erythema | – | – | – | – | – | – | – | – | – | – | – | –
CO[C@@H]1[C@H](N(C)C(=O)c2ccccc2)C[C@H]2O[C@]1(C)n1c3ccccc3c3c4c(c5c6ccccc6n2c5c31)C(=O)NC4 [Midostaurin, midostaurin] | 5.27 | – | < 10000 | < 10000 | > 50000 | > 50000 | < 10000 | < 10000 | < 10000 | 0.07 | 0.11 | 0.12 | 99.64 | 0.06
